Measured values reported in ChEMBL document CHEMBL1201861, “Genomics of Drug Sensitity in Cancer screening data, Wellcome Trust Sanger Institute”.

Experiments:
NCI-H187 = assay: cells; type: functional, cell-based, Homo sapiens; details: Homo sapiens, NCI-H187;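 further: growth inhibition of NCI-H187 cells, read out as cell viability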
Description: SANGER: Inhibition of human NCI-H187 cell growth in a cell viability assay.

G-402 = assay: cells; type: functional, cell-based, Homo sapiens; details: Homo sapiens, G-402
Description: SANGER: Inhibition of human G-402 cell growth in a cell viability assay.

A-375 = assay: cells; type: functional, cell-based, Homo sapiens; details: Homo sapiens, A-375;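 further: growth inhibition of A375 cells, read out with a cell viability assay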
Description: SANGER: Inhibition of human A375 cell growth in a cell viability assay.

CAL-148 = assay: cells; type: functional, cell-based, Homo sapiens; details: Homo sapiens, CAL-148
Description: SANGER: Inhibition of human CAL-148 cell growth in a cell viability assay.

CHP-212 = assay: cells; type: functional, cell-based, Homo sapiens; details: Homo sapiens, CHP-212
Description: SANGER: Inhibition of human CHP-212 cell growth in a cell viability assay.

IPC-298 = assay: SANGER: Inhibition of human IPC-298 cell growth in a cell viability assay.; type: functional, cell-based; details: Homo sapiens, IPC-298
NCI-H2452 = assay: cells; type: functional, cell-based, Homo sapiens; details: Homo sapiens, NCI-H2452;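 further: growth inhibition of NCI-H2452 cells, read out with a cell viability assay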
Description: SANGER: Inhibition of human NCI-H2452 cell growth in a cell viability assay.

MDA-MB-468 = assay: cells; type: functional, cell-based, Homo sapiens; details: Homo sapiens, MDA-MB-468
Description: SANGER: Inhibition of human MDA-MB-468 cell growth in a cell viability assay.

NCI-H1522 = assay: cells; type: functional, cell-based, Homo sapiens; details: Homo sapiens, NCI-H1522;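 further: growth inhibition of NCI-H1522 cells, read out with a cell viability assay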
Description: SANGER: Inhibition of human NCI-H1522 cell growth in a cell viability assay.

LoVo = assay: cells; type: functional, cell-based, Homo sapiens; details: Homo sapiens, LoVo;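 further: growth inhibition of human LoVo cells, read out with a cell viability assay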
Description: SANGER: Inhibition of human LoVo cell growth in a cell viability assay.

YT = assay: cells; type: functional, cell-based, Homo sapiens; details: Homo sapiens, YT
Description: SANGER: Inhibition of human YT cell growth in a cell viability assay.

ARH-77 = assay: cells; type: functional, cell-based, Homo sapiens; details: Homo sapiens, ARH-77;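 further: growth inhibition of ARH-77 cells, read out by a cell viability assay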
Description: SANGER: Inhibition of human ARH-77 cell growth in a cell viability assay.

CCF-STTG1 = assay: cells; type: functional, cell-based, Homo sapiens; details: Homo sapiens, CCF-STTG1;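 further: growth inhibition of human CCF-STTG1 cells, determined with a cell viability read-out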
Description: SANGER: Inhibition of human CCF-STTG1 cell growth in a cell viability assay.

Raji = assay: cells; type: functional, cell-based, Homo sapiens; details: Homo sapiens, Raji;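 further: cell viability assay measuring inhibition of Raji cell growth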
Description: SANGER: Inhibition of human Raji cell growth in a cell viability assay.

DV-90 = assay: cells; type: functional, cell-based, Homo sapiens; details: Homo sapiens, DV-90;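 further: Read-out is a viability assay, with IC50 reflecting the drop in DV-90 cell growth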
Description: SANGER: Inhibition of human DV-90 cell growth in a cell viability assay.

HCC38 = assay: cells; type: functional, cell-based, Homo sapiens; details: Homo sapiens, HCC38;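 further: cell viability assay on the human HCC38 cell line, with IC50 marking the concentration that inhibits cell growth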
Description: SANGER: Inhibition of human HCC38 cell growth in a cell viability assay.

SIG-M5 = assay: cells; type: functional, cell-based, Homo sapiens; details: Homo sapiens, SIG-M5;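 further: cell viability assay read-out, measuring how strongly growth of cultured human SIG-M5 cells is inhibited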
Description: SANGER: Inhibition of human SIG-M5 cell growth in a cell viability assay.

HMV-2 cell line = assay: cells; type: functional, cell-based, Homo sapiens; details: Homo sapiens, HMV-2;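 further: growth inhibition of HMV-II cells, read out with a cell viability assay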
Description: SANGER: Inhibition of human HMV-II cell growth in a cell viability assay.

TT = assay: cells; type: functional, cell-based, Homo sapiens; details: Homo sapiens, TT
Description: SANGER: Inhibition of human TT cell growth in a cell viability assay.

PFSK-1 = assay: cells; type: functional, cell-based, Homo sapiens; details: Homo sapiens, PFSK-1;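 further: cell viability assay measuring how strongly compounds suppress growth of human PFSK-1 cells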
Description: SANGER: Inhibition of human PFSK-1 cell growth in a cell viability assay.

MFE-296 = assay: SANGER: Inhibition of human MFE-296 cell growth in a cell viability assay.; type: functional, cell-based; details: Homo sapiens, MFE-296
MCF7 = assay: cells; type: functional, cell-based, Homo sapiens; details: Homo sapiens, MCF7;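 further: growth inhibition of human MCF7 cells, read out with a cell viability assay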
Description: SANGER: Inhibition of human MCF7 cell growth in a cell viability assay.

C32 = assay: cells; type: functional, cell-based, Homo sapiens; details: Homo sapiens, C32;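 further: cell viability assay, with IC50 reflecting inhibition of C32 cell growth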
Description: SANGER: Inhibition of human C32 cell growth in a cell viability assay.

MKN-28 = assay: cells; type: functional, cell-based, Homo sapiens; details: Homo sapiens, MKN-28;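 further: cell viability assay read-out, IC50 reflects suppression of growth of human MKN-28 cells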
Description: SANGER: Inhibition of human MKN28 cell growth in a cell viability assay.

Calu-1 = assay: SANGER: Inhibition of human Calu-1 cell growth in a cell viability assay.; type: functional, cell-based; details: Homo sapiens, Calu-1
T47D = assay: cells; type: functional, cell-based, Homo sapiens; details: Homo sapiens, T47D;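 further: growth inhibition of human T47D cells, measured with a cell viability assay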
Description: SANGER: Inhibition of human T47D cell growth in a cell viability assay.

CPC-N = assay: cells; type: functional, cell-based, Homo sapiens; details: Homo sapiens, CPC-N;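 further: growth inhibition of CPC-N cells, with a cell viability assay as the readout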
Description: SANGER: Inhibition of human CPC-N cell growth in a cell viability assay.

UO-31 = assay: cells; type: functional, cell-based, Homo sapiens; details: Homo sapiens, UO-31
Description: SANGER: Inhibition of human U031 cell growth in a cell viability assay.

EW-7 = assay: SANGER: Inhibition of human EW-7 cell growth in a cell viability assay.; type: functional, cell-based; details: Homo sapiens, EW-7
DMS-53 = assay: cells; type: functional, cell-based, Homo sapiens; details: Homo sapiens, DMS-53;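 further: cell viability assay measuring growth inhibition of human DMS-53 cells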
Description: SANGER: Inhibition of human DMS-53 cell growth in a cell viability assay.

JIYOYE = assay: cells; type: functional, cell-based, Homo sapiens; details: Homo sapiens, JIYOYE
Description: SANGER: Inhibition of human JiyoyeP-2003 cell growth in a cell viability assay.

PLC-PRF-5 = assay: cells; type: functional, cell-based, Homo sapiens; details: Homo sapiens, PLC-PRF-5;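 further: growth inhibition of human PLC-PRF-5 cells, read out with a viability assay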
Description: SANGER: Inhibition of human PLC-PRF-5 cell growth in a cell viability assay.

NCI-H2009 = assay: cells; type: functional, cell-based, Homo sapiens; details: Homo sapiens, NCI-H2009;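 further: cell viability assay measuring inhibition of NCI-H2009 cell growth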
Description: SANGER: Inhibition of human NCI-H2009 cell growth in a cell viability assay.

REH = assay: cells; type: functional, cell-based, Homo sapiens; details: Homo sapiens, REH;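 further: growth inhibition of REH cells determined with a cell viability read-out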
Description: SANGER: Inhibition of human REH cell growth in a cell viability assay.

BHT-101 = assay: cells; type: functional, cell-based, Homo sapiens; details: Homo sapiens, BHT-101
Description: SANGER: Inhibition of human BHT-101 cell growth in a cell viability assay.

MEL-JUSO = assay: cells; type: functional, cell-based, Homo sapiens; details: Homo sapiens, MEL-JUSO;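 further: growth inhibition of human MEL-JUSO cells, read out with a cell viability assay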
Description: SANGER: Inhibition of human MEL-JUSO cell growth in a cell viability assay.

SUP-T1 = assay: cells; type: functional, cell-based, Homo sapiens; details: Homo sapiens, SUP-T1;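 further: growth inhibition of human SUP-T1 cells, read out as cell viability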
Description: SANGER: Inhibition of human SUP-T1 cell growth in a cell viability assay.

IGROV-1 = assay: cells; type: functional, cell-based, Homo sapiens; details: Homo sapiens, IGROV-1;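 further: reduction of IGROV-1 cell growth, read out with a viability assay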
Description: SANGER: Inhibition of human IGROV-1 cell growth in a cell viability assay.

IM-9 = assay: SANGER: Inhibition of human IM-9 cell growth in a cell viability assay.; type: functional, cell-based; details: Homo sapiens, IM-9

Cc1cc([N+](=O)[O-])ccc1NS(=O)(=O)c1cc(Cl)ccc1Cl
IC50 (NCI-H187): 12.3 µM
IC50 (G-402): 4.65 µM
IC50 (A-375): 3.58 µM
IC50 (CAL-148): 13.7 µM
IC50 (CHP-212): 2.58 µM
IC50 (IPC-298): 2.69 µM
IC50 (NCI-H2452): > 32 µM
IC50 (MDA-MB-468): 1.21 µM
IC50 (NCI-H1522): > 32 µM
IC50 (LoVo): 2 µM
IC50 (YT): 1.83 µM
IC50 (ARH-77): > 32 µM
IC50 (CCF-STTG1): 12.8 µM
IC50 (Raji): 6.44 µM
IC50 (DV-90): 1.94 µM
IC50 (HCC38): 7.96 µM
IC50 (SIG-M5): 3.36 µM
IC50 (HMV-2 cell line): 1.54 µM
IC50 (TT): 9.13 µM
IC50 (PFSK-1): 12.4 µM
IC50 (MFE-296): 4.7 µM
IC50 (MCF7): 2.64 µM
IC50 (C32): < 0.125 µM
IC50 (MKN-28): 4.37 µM
IC50 (Calu-1): 8.64 µM
IC50 (T47D): 26.9 µM
IC50 (CPC-N): > 32 µM
IC50 (UO-31): 8.66 µM
IC50 (EW-7): > 32 µM
IC50 (DMS-53): 1.1 µM
IC50 (JIYOYE): 6.6 µM
IC50 (PLC-PRF-5): 1.17 µM
IC50 (NCI-H2009): 2.69 µM
IC50 (REH): 11.5 µM
IC50 (BHT-101): 21.4 µM
IC50 (MEL-JUSO): 5.17 µM
IC50 (SUP-T1): 5.41 µM
IC50 (IGROV-1): 2.66 µM
IC50 (IM-9): 14.1 µM

Oc1ccc2ccccc2c1SSc1c(O)ccc2ccccc12
IC50 (NCI-H187): > 32 µM
IC50 (G-402): > 32 µM
IC50 (A-375): > 32 µM
IC50 (CAL-148): > 32 µM
IC50 (CHP-212): 9.1 µM
IC50 (IPC-298): > 32 µM
IC50 (NCI-H2452): > 32 µM
IC50 (MDA-MB-468): > 32 µM
IC50 (NCI-H1522): > 32 µM
IC50 (LoVo): > 32 µM
IC50 (YT): 1.39 µM
IC50 (ARH-77): > 32 µM
IC50 (CCF-STTG1): > 32 µM
IC50 (Raji): > 32 µM
IC50 (DV-90): > 32 µM
IC50 (HCC38): > 32 µM
IC50 (SIG-M5): 2.1 µM
IC50 (HMV-2 cell line): > 32 µM
IC50 (TT): > 32 µM
IC50 (PFSK-1): > 32 µM
IC50 (MFE-296): > 32 µM
IC50 (MCF7): 2.18 µM
IC50 (C32): > 32 µM
IC50 (MKN-28): 17.3 µM
IC50 (Calu-1): > 32 µM
IC50 (T47D): > 32 µM
IC50 (CPC-N): > 32 µM
IC50 (UO-31): > 32 µM
IC50 (EW-7): > 32 µM
IC50 (DMS-53): > 32 µM
IC50 (JIYOYE): 7.26 µM
IC50 (PLC-PRF-5): > 32 µM
IC50 (NCI-H2009): 5.04 µM
IC50 (REH): 3.37 µM
IC50 (BHT-101): > 32 µM
IC50 (MEL-JUSO): > 32 µM
IC50 (SUP-T1): > 32 µM
IC50 (IGROV-1): > 32 µM
IC50 (IM-9): 7.93 µM

C=C(c1ccc(C(=O)O)cc1)c1cc2c(cc1C)C(C)(C)CCC2(C)C [BEXAROTENE]
IC50 (NCI-H187): > 8 µM
IC50 (G-402): > 8 µM
IC50 (A-375): > 8 µM
IC50 (CAL-148): > 8 µM
IC50 (CHP-212): > 8 µM
IC50 (IPC-298): > 8 µM
IC50 (NCI-H2452): > 8 µM
IC50 (MDA-MB-468): > 8 µM
IC50 (NCI-H1522): > 8 µM
IC50 (LoVo): 5.92 µM
IC50 (YT): > 8 µM
IC50 (ARH-77): > 8 µM
IC50 (CCF-STTG1): > 8 µM
IC50 (Raji): > 8 µM
IC50 (DV-90): > 8 µM
IC50 (HCC38): > 8 µM
IC50 (SIG-M5): < 0.0312 µM
IC50 (HMV-2 cell line): > 8 µM
IC50 (TT): > 8 µM
IC50 (PFSK-1): > 8 µM
IC50 (MFE-296): > 8 µM
IC50 (MCF7): > 8 µM
IC50 (C32): > 8 µM
IC50 (MKN-28): > 8 µM
IC50 (Calu-1): > 8 µM
IC50 (T47D): > 8 µM
IC50 (CPC-N): > 8 µM
IC50 (UO-31): > 8 µM
IC50 (EW-7): > 8 µM
IC50 (DMS-53): > 8 µM
IC50 (JIYOYE): > 8 µM
IC50 (PLC-PRF-5): > 8 µM
IC50 (NCI-H2009): > 8 µM
IC50 (REH): > 8 µM
IC50 (BHT-101): > 8 µM
IC50 (MEL-JUSO): > 8 µM
IC50 (SUP-T1): > 8 µM
IC50 (IGROV-1): > 8 µM
IC50 (IM-9): > 8 µM

CCC/C=C/C=C/C(=O)O[C@H]1/C(=C/C(=O)OC)C[C@H]2C[C@H]([C@@H](C)O)OC(=O)C[C@H](O)C[C@@H]3C[C@H](OC(C)=O)C(C)(C)[C@](O)(C[C@@H]4C/C(=C/C(=O)OC)C[C@H](/C=C/C(C)(C)[C@]1(O)O2)O4)O3 [BRYOSTATIN 1]
IC50 (NCI-H187): > 0.008 µM
IC50 (G-402): > 0.008 µM
IC50 (A-375): > 0.008 µM
IC50 (CAL-148): > 0.008 µM
IC50 (CHP-212): > 0.008 µM
IC50 (IPC-298): > 0.008 µM
IC50 (NCI-H2452): > 0.008 µM
IC50 (MDA-MB-468): > 0.008 µM
IC50 (NCI-H1522): > 0.008 µM
IC50 (LoVo): > 0.008 µM
IC50 (YT): > 0.008 µM
IC50 (ARH-77): > 0.008 µM
IC50 (CCF-STTG1): > 0.008 µM
IC50 (Raji): > 0.008 µM
IC50 (DV-90): > 0.008 µM
IC50 (HCC38): > 0.008 µM
IC50 (SIG-M5): 0.00156 µM
IC50 (HMV-2 cell line): 0.00226 µM
IC50 (TT): > 0.008 µM
IC50 (PFSK-1): > 0.008 µM
IC50 (MFE-296): > 0.008 µM
IC50 (MCF7): > 0.008 µM
IC50 (C32): > 0.008 µM
IC50 (MKN-28): > 0.008 µM
IC50 (Calu-1): > 0.008 µM
IC50 (T47D): > 0.008 µM
IC50 (CPC-N): > 0.008 µM
IC50 (UO-31): > 0.008 µM
IC50 (EW-7): > 0.008 µM
IC50 (DMS-53): > 0.008 µM
IC50 (JIYOYE): > 0.008 µM
IC50 (PLC-PRF-5): > 0.008 µM
IC50 (NCI-H2009): > 0.008 µM
IC50 (REH): > 0.008 µM
IC50 (BHT-101): > 0.008 µM
IC50 (MEL-JUSO): > 0.008 µM
IC50 (SUP-T1): > 0.008 µM
IC50 (IGROV-1): > 0.008 µM
IC50 (IM-9): > 0.008 µM
